Laboratory results from ChEMBL document CHEMBL5584313, “Design and Synthesis of 7-Oxabicyclo[2.2.1]heptane-2,3-dicarboxylic Acid Derivatives as PP5 Inhibitors To Reverse Temozolomide Resistance in Glioblastoma Multiforme” (J Med Chem, 2024).
The source made the active and inactive calls. The calls are words filed in the database; no cut-off is given here.

What was measured:
U-87 MG [1] = test: Induction of apoptosis in human U-87 MG cells assessed as S phase cells at 5 uM incubated for 24 hrs by propidium iodide staining based flow cytometry analysis (reference value: 29.4%); assay type: functional, U-87MG ATCC
[2] = Stability of compound in stimulated gastric fluid assessed as remaining compound after 24 hrs by HPLC method; assay type: ADME; settings: simulated gastric fluid, read-out: Stability
[3] = AUC(0 to infinity) in Sprague-Dawley rat at 5 mg/kg, iv measured upto 24 hrs by LC-MS/MS method; assay type: ADME, organism-based; settings: in vivo
U-87 MG [4] = test: Antitumor activity against human U-87 MG cells xenografted in BALB/c nude mouse assessed as increase in p53 expression at 1.5 to 3 mg/kg, po measured after 4 hrs in presence of 40 mg/kg TMZ by Western blotting analysis; assay type: functional, organism-based; settings: U-87MG ATCC, dose 1.5-3 mg/kg
U-87MG ATCC [5] = test: Upregulation of p27 expression in human U-87 MG cells at 6.25 to 100 uM after 24 hrs by Western blotting analysis; assay type: functional, cell-based; settings: dose 6.25-100 µM
[6] = Apparent clearance in Sprague-Dawley rat at 25 mg/kg, po measured upto 24 hrs by LC-MS/MS method; assay type: ADME, organism-based; settings: in vivo, read-out: CL(app) (converted)
[7] = Stability in mouse plasma assessed as half life measured upto 300 mins by LC-MS/MS analysis; assay type: ADME, cell-free
[8] = Cmax in Sprague-Dawley rat at 25 mg/kg, po measured upto 24 hrs by LC-MS/MS method; assay type: ADME, organism-based; settings: in vivo
HCT-116 = test: Cytotoxicity against human HCT-116 cells incubated for 48 hrs by CCK8 assay; assay type: functional, cell-based; settings: HCT-116, 48 h
U-87MG ATCC [9] = test: Upregulation of p21 expression in human U-87 MG cells at 6.25 to 100 uM after 24 hrs by Western blotting analysis; assay type: functional, cell-based; settings: dose 6.25-100 µM
U-87 MG [10] = test: Antitumor activity against human U-87 MG cells xenografted in BALB/c nude mouse assessed as reduction in MGMT expression at 1.5 to 3 mg/kg, po measured after 4 hrs in presence of 40 mg/kg TMZ by Western blotting analysis; assay type: functional, organism-based; settings: U-87MG ATCC, dose 1.5-3 mg/kg
[11] = Cytotoxicity against human BEAS-2B incubated for 48 hrs by CCK8 assay; assay type: toxicity, cell-based; settings: BEAS-2B cells
[12] = Cmax in Sprague-Dawley rat at 5 mg/kg, iv measured upto 24 hrs by LC-MS/MS method; assay type: ADME, organism-based; settings: in vivo
[13] = Cytotoxicity against HUVECs incubated for 48 hrs by CCK8 assay; assay type: toxicity, cell-based; settings: human, HUVEC cells
U-87MG ATCC [14] = test: Upregulation of p53 expression in human U-87 MG cells at 25 uM after 24 hrs in presence TMZ by Western blotting analysis; assay type: functional, cell-based
[15] = Inhibition of PP2A in human U-87 MG cell lysate using RRA(pT)VA as substrate; assay type: subcellular
U-87MG ATCC [16] = test: Downregulation of cyclin D1 expression in human U-87 MG cells at 25 uM incubated for 24 hrs by Western blotting analysis; assay type: functional, cell-based
U-87 MG [17] = test: Antitumor activity against human U-87 MG cells xenografted in BALB/c nude mouse assessed as tumor growth inhibition at 3 mg/kg, po administered every other day for 18 days in presence of 40 mg/kg TMZ; assay type: functional, U-87MG ATCC; settings: 432 h, time 18 day, read-out: TGI
U-87MG ATCC [18] = test: Downregulation of MGMT expression in human U-87 MG cells at 25 uM incubated for 24 hrs in presence of TMZ by Western blotting analysis; assay type: functional, cell-based
[19] = Tmax in Sprague-Dawley rat at 5 mg/kg, iv measured upto 24 hrs by LC-MS/MS method; assay type: ADME, organism-based; settings: in vivo
[20] = Half-life in Sprague-Dawley rat at 25 mg/kg, po measured upto 24 hrs by LC-MS/MS method; assay type: ADME, organism-based; settings: in vivo
[21] = Apparent volume of distribution in Sprague-Dawley rat at 25 mg/kg, po measured upto 24 hrs by LC-MS/MS method; assay type: ADME, organism-based; settings: in vivo
[22] = Toxicity in BALB/c nude mouse xenografted with U-87 MG cells assessed as heart damage at 1.5 to 3 mg/kg, po administered every other day for 18 days in presence of 40 mg/kg TMZ by H and E staining based assay; assay type: organism-based; settings: in vivo, 432 h, dose 1.5-3 mg/kg, time 18 day
[23] = Toxicity in BALB/c nude mouse xenografted with U-87 MG cells assessed as liver damage at 1.5 to 3 mg/kg, po administered every other day for 18 days in presence of 40 mg/kg TMZ by H and E staining based assay; assay type: organism-based; settings: in vivo, 432 h, dose 1.5-3 mg/kg, time 18 day
U-87 MG [24] = test: Cytotoxicity against human U-87 MG cells incubated for 48 hrs by CCK8 assay; assay type: functional, cell-based, U-87MG ATCC
U-87 MG [25] = test: Induction of apoptosis in human U-87 MG cells assessed as G0/G1 phase cells at 5 uM incubated for 24 hrs by propidium iodide staining based flow cytometry analysis (reference value: 58.8%); assay type: functional, U-87MG ATCC
U-87 MG [26] = test: Antitumor activity against human U-87 MG cells xenografted in BALB/c nude mouse assessed as tumor growth inhibition at 1.5 mg/kg, po administered every other day for 18 days in presence of 40 mg/kg TMZ; assay type: functional, U-87MG ATCC; settings: 432 h, time 18 day, read-out: TGI
U-87 MG [27] = test: Synergistic antiproliferative activity against human U-87 MG cells at 10 uM in presence of TMZ; assay type: functional, cell-based; settings: U-87MG ATCC
U-87 MG [28] = test: Antitumor activity against human U-87 MG cells xenografted in BALB/c nude mouse assessed as tumor tissue necrosis at 1.5 to 3 mg/kg, po administered every other day for 18 days in presence of 40 mg/kg TMZ; assay type: functional, organism-based; settings: U-87MG ATCC, dose 1.5-3 mg/kg, time 18.0 day
[29] = Stability of compound in stimulated intestinal fluid assessed as remaining compound after 24 hrs by HPLC method; assay type: ADME; settings: simulated intestinal fluid, read-out: Stability
U-87 MG [30] = test: Synergistic antiproliferative activity against human U-87 MG cells in presence of TMZ; assay type: functional, cell-based, U-87MG ATCC
A549 = test: Cytotoxicity against human A549 cells incubated for 48 hrs by CCK8 assay; assay type: functional, cell-based; settings: A549, 48 h
[31] = Stability of compound in water assessed as remaining compound after 24 hrs; assay type: physicochemical; settings: read-out: Stability
[32] = MRT(0 to infinity) in Sprague-Dawley rat at 25 mg/kg, po measured upto 24 hrs by LC-MS/MS method; assay type: ADME, organism-based; settings: in vivo
[33] = Tmax in Sprague-Dawley rat at 25 mg/kg, po measured upto 24 hrs by LC-MS/MS method; assay type: ADME, organism-based; settings: in vivo
Homo sapiens [34] = species on record: Homo sapiens; test: Selectivity ratio of IC50 for PP1 (unknown origin ) to IC50 for PP5 (unknown origin)
[35] = Apparent volume of distribution in Sprague-Dawley rat at 5 mg/kg, iv measured upto 24 hrs by LC-MS/MS method; assay type: ADME, organism-based; settings: in vivo, read-out: Vz
[36] = Aqueous stability of compound assessed as compound remaining measured at 240 mins by HPLC assay; assay type: physicochemical; settings: aqueous solution, read-out: Stability
Homo sapiens [37] = species on record: Homo sapiens; test: Selectivity ratio of IC50 for PP2A (unknown origin ) to IC50 for PP5 (unknown origin)
U-87MG ATCC [38] = test: Upregulation of p53 expression in human U-87 MG cells at 6.25 to 100 uM after 24 hrs by Western blotting analysis; assay type: functional, cell-based; settings: dose 6.25-100 µM
[39] = Apparent clearance in Sprague-Dawley rat at 5 mg/kg, iv measured upto 24 hrs by LC-MS/MS method; assay type: ADME, organism-based; settings: in vivo, read-out: CL(app) (converted)

- remaining at 24 h [2]: 92%
- AUC(0-inf) [3]: 13300 ng·h/mL
- CL/F [6]: 7.69 mL/min/kg
- half-life [7]: 2.09 h
- Cmax [8]: 11300 ng/mL
- Cmax [12]: 8620 ng/mL
- IC50 [15]: 33.8 µM
- Tmax [19]: 1.2 min
- half-life [20]: 3.94 h
- Vz [21]: 2.62804 L/kg
- remaining at 24 h [29]: 96%
- IC50 (U-87 MG [30]): 19.8 µM
- remaining at 24 h [31]: 98.3%
- MRT inf [32]: 5 h
- Tmax [33]: 1.17 h
- Ratio IC50 (Homo sapiens [34]): 21.4
- Vd [35]: 1.32 L/kg
- remaining at 4 h [36]: 99.8%
- Ratio IC50 (Homo sapiens [37]): 38
- clearance [39]: 6.3 mL/min/kg
SMILES: O=C(O)[C@@H]1[C@H](C(=O)n2ccc3ccccc32)[C@H]2CC[C@@H]1O2
- Activity (U-87 MG [1]): 19.2%
- Activity (U-87 MG [4]): Active
- Activity (U-87MG ATCC [5]): Active
- IC50 (HCT-116): 26.5 µM
- Activity (U-87MG ATCC [9]): Active
- Activity (U-87 MG [10]): Active
- IC50 at 48 h [11]: 57.8 µM
- IC50 at 48 h [13]: > 200 µM
- Activity (U-87MG ATCC [14]): Active
- Activity (U-87MG ATCC [16]): Active
- inhibition in vivo at 3 mg/kg (U-87 MG [17]): 87.7%
- Activity (U-87MG ATCC [18]): Active
- Activity [22]: Non-Toxic
- Activity [23]: Non-Toxic
- IC50 (U-87 MG [24]): 70.1 µM
- Activity (U-87 MG [25]): 72.2%
- inhibition in vivo at 1.5 mg/kg (U-87 MG [26]): 70.9%
- Activity (U-87 MG [27]): Active
- Activity (U-87 MG [28]): Active
- IC50 (A549): 69.6 µM
- Activity (U-87MG ATCC [38]): Active
